Drawing on patent US8912195B2, “Alkyl amides as HIV attachment inhibitors” (priority 2010, dated 2014), this text covers EC50 for 46 molecules.

This test relates to single-round infectious reporter virus with HIV-1 LAI envelope. The experiment in a line: Single-round infectious HIV-1 LAI luciferase reporter virus infection of MT2 cells. The settings on record: Human immunodeficiency virus 1, MT2, 72 h. The test is classed as cell-based. The text has this: • Virus production—Human embryonic Kidney cell line, 293T (HEK 293T), was propagated in Dulbecco's Modified Eagle Medium (Invitrogen, Carlsbad, Calif.) containing 10% fetal Bovine serum (FBS, Sigma, St. Louis, Mo.). The human T-cell leukemia cell MT2 (AIDS Research and Reference Reagent Program, Cat. 237) was propagated in RPMI 1640 (Invitrogen, Carlsbad, Calif.) containing 10% fetal bovine serum (FBS, Hyclone, Logan, Utah) • Virus infection—Single-round infectious reporter virus was produced by co-transfecting HEK 293T cells with plasmide expressing the HIV-1 LAI envelope along with a plasmid containing an HIV-1 LAI proviral cDNA with the envelope gene replaced by a firefly luciferase reporter gene (Chen et al, Ref 41). Transfections were performed using lipofectAMINE PLUS reagent as described by the manufacturer (Invitrogen, Carlsbad, Calif.).
• 1. MT2 cells were plated in black, 384 well plates at a cell density of 5×10^3 cells per well in 25 μl RPMI 1640 containing 10% FBS. • 2. Compound (diluted in dimethylsulfoxide and growth medium) was added to cells at 12.5 μl/well, so that the final assay concentration would be ≦50 nM. • 3. 12.5 μl of single-round infectious reporter virus in Dulbecco's Modified Eagle Medium was added to the plated cells and compound at an approximate multiplicity of infection (MOI) of 0.01, resulting in a final volume of 50 μl per well. • 4. Virus-infected cells were incubated at 37 degrees Celsius, in a CO2 incubator, and harvested 72 h after infection. • 5. Viral infection was monitored by measuring luciferase expression in the infected cells using a luciferase reporter gene assay kit (Steady-Glo, Promega, Madison, Wis.) as described by the manufacturer. Luciferase activity was then quantified by measuring luminescence using an EnVision Multilabel Plate Readers (PerkinElmer, Waltham, Mass.). • 6. The percent inhibition for each compound was calculated by quantifying the level of luciferase expression in cells infected in the presence of each compound as a percentage of that observed for cells infected in the absence of compound and subtracting such a determined value from 100. • 7. An EC50 provides a method for comparing the antiviral potency of the compounds of this disclosure. The effective concentration for fifty percent inhibition (EC50) was calculated with the Microsoft Excel Xlfit curve fitting software. For each compound, curves were generated from percent inhibition calculated at 10 different concentrations by using a four paramenter logistic model (model 205). Table 1 is the key for the data in Table 2.

Setting [1] is: read-out: EC50 Group from Table 1.

Where two headings read alike, the source gives them in different places.

For `COc1cnc(-n2cnc(C)n2)c2[nH]cc(C(=O)C(=O)N3CCN(C(=O)CCC4CCCC4)CC3)c12` [Compound 2041], under setting [1], the EC50 is less than 500 nM.
On to `CC1CCCC(C(=O)N2CCN(C(=O)C(=O)c3c[nH]c4c(-n5ccnn5)ncc(F)c34)CC2)C1` (centres unmarked) [Compound 2001], for which, under setting [1], the concentration giving a half-maximal response (EC50) was less than 500 nM.
Still for that read-out and setting: to `CC(C)(C)OC(=O)N[C@H](C(=O)N1CCN(C(=O)C(=O)c2c[nH]c3c(-n4ccnn4)ncc(F)c23)CC1)c1ccccc1` [Compound 2031] belongs greater than 500 nM; to `CC[C@@]12CC3C[C@@](O)(C1)C[C@](C(=O)N1CCN(C(=O)C(=O)c4c[nH]c5c(-n6ccnn6)ncc(F)c45)CC1)(C3)C2` [Compound 2027], less than 500 nM.
Same read-out and setting: to `CC1CCCCC1C(=O)N1CCN(C(=O)C(=O)c2c[nH]c3c(-n4ccnn4)ncc(F)c23)CC1` (centres unmarked) [Compound 2003] belongs less than 500 nM.
`O=C(C(=O)N1CCN(C(=O)C2C[C@H]3C[C@@H]2CCC3O)CC1)c1c[nH]c2c(-n3ccnn3)ncc(F)c12` (some centres unmarked) [Compound 2010]: under setting [1], the half-maximal effective concentration (EC50) is less than 500 nM.
On the same count and under the same terms, under `CN(C)[C@@H](C(=O)N1CCN(C(=O)C(=O)c2c[nH]c3c(-n4ccnn4)ncc(F)c23)CC1)c1ccccc1` [Compound 2036] stands greater than 500 nM; under `CC(C)CC(=O)N1CCN(C(=O)C(=O)c2c[nH]c3c(-n4ccnn4)ncc(F)c23)CC1` [Compound 1001, 1-(4-fluoro-7-(1H-1,2,3-triazol-1-yl)-1H-pyrrolo[2,3-c]pyridin-3-yl)-2-(4-(3-methylbutanoyl)piperazin-1-yl)ethane-1,2-dione], less than 500 nM; under `COCC(=O)N1CCN(C(=O)C(=O)c2c[nH]c3c(-n4cnc(C)n4)ncc(OC)c23)CC1` [Compound 2048], less than 500 nM.
`CCC(=O)N1CCN(C(=O)C(=O)c2c[nH]c3c(-n4ccnn4)ncc(F)c23)CC1` [Compound 2046] gave an EC50 of 6.88 nM. The EC50 under setting [1] is less than 500 nM.
Regarding `O=C(C(=O)N1CCN(C(=O)C23CC4CC(CC(C4)C2)C3)CC1)c1c[nH]c2c(-n3ccnn3)ncc(F)c12` [Compound 2016], under setting [1], the concentration for a half-maximal effect (EC50) was less than 500 nM.
As to `O=CN1CCCC(C(=O)N2CCN(C(=O)C(=O)c3c[nH]c4c(-n5ccnn5)ncc(F)c34)CC2)C1` (centres unmarked) [Compound 2028], the EC50 stood at 25.5 nM. Under setting [1], the EC50 was less than 500 nM.
The corresponding values for `CCC(=O)N1CCN(C(=O)C(=O)c2c[nH]c3c(-n4cnc(C)n4)ncc(OC)c23)CC1` [Compound 2050] are 10.4 nM and less than 500 nM.
For `O=C(C(=O)N1CCN(C(=O)C2CCC(O)CC2)CC1)c1c[nH]c2c(-n3ccnn3)ncc(F)c12` (centres unmarked) [Compound 2018], the EC50 under setting [1] was less than 500 nM.
For `C[C@H]1CC[C@H](C(=O)N2CCN(C(=O)C(=O)c3c[nH]c4c(-n5ccnn5)ncc(F)c34)CC2)CC1` [Compound 2012], under setting [1], the half-maximal effective concentration (EC50) is less than 500 nM.
Same read-out and setting: under `CN1CCC[C@H]1C(=O)N1CCN(C(=O)C(=O)c2c[nH]c3c(-n4ccnn4)ncc(F)c23)CC1` [Compound 2030] stands greater than 500 nM.
As for `CN(C)[C@H](C(=O)N1CCN(C(=O)C(=O)c2c[nH]c3c(-n4ccnn4)ncc(F)c23)CC1)c1ccccc1` [Compound 2037], under setting [1], the EC50 is greater than 500 nM.
As for `COCCOCC(=O)N1CCN(C(=O)C(=O)c2c[nH]c3c(-n4ccnn4)ncc(F)c23)CC1` [Compound 2047], the EC50 under setting [1] is greater than 500 nM.
`O=C(C(=O)N1CCN(C(=O)C2CCOCC2)CC1)c1c[nH]c2c(-n3ccnn3)ncc(F)c12` [Compound 2014]: the concentration for a half-maximal effect (EC50) is 12.5 nM. Under setting [1], the concentration for a half-maximal effect (EC50) was less than 500 nM.
Take `N[C@H]1CCCC[C@@H]1C(=O)N1CCN(C(=O)C(=O)c2c[nH]c3c(-n4ccnn4)ncc(F)c23)CC1` [Compound 2006]: the EC50 under setting [1] is greater than 500 nM.
In the case of `COCC(=O)N1CCN(C(=O)C(=O)c2c[nH]c3c(-n4ccnn4)ncc(F)c23)CC1` [Compound 2044], under setting [1], the EC50 was less than 500 nM.
As for `CCCCCC(=O)N1CCN(C(=O)C(=O)c2c[nH]c3c(-n4cnc(C)n4)ncc(OC)c23)CC1` [Compound 2040], the EC50 under setting [1] is less than 500 nM.
The same measure, in the same setting: under `C[C@]12C[C@]3(C)C[C@](N)(C1)C[C@](C(=O)N1CCN(C(=O)C(=O)c4c[nH]c5c(-n6ccnn6)ncc(F)c45)CC1)(C2)C3` [Compound 2032] stands greater than 500 nM.
On to `O=C(C(=O)N1CCN(C(=O)CCC2CCCC2)CC1)c1c[nH]c2c(-n3ccnn3)ncc(F)c12` [Compound 2043], for which the half-maximal effective concentration (EC50) under setting [1] was less than 500 nM.
The same measure, in the same setting: to `CC(C)(C)OC(=O)N1CCC(C(=O)N2CCN(C(=O)C(=O)c3c[nH]c4c(-n5ccnn5)ncc(F)c34)CC2)CC1` [Compound 2035] belongs greater than 500 nM.
`NC1(C(=O)N2CCN(C(=O)C(=O)c3c[nH]c4c(-n5ccnn5)ncc(F)c34)CC2)CCCC1` [Compound 2013] came in with a half-maximal effective concentration (EC50) of 451 nM. Moreover, the EC50 under setting [1] was less than 500 nM.
For the molecule `C[C@]1(C(=O)N2CCN(C(=O)C(=O)c3c[nH]c4c(-n5ccnn5)ncc(F)c34)CC2)CCCN1` [Compound 2007], the EC50 under setting [1] is greater than 500 nM.
As to `COc1cnc(-n2ccnn2)c2[nH]cc(C(=O)C(=O)N3CCN(C(=O)C4CCCCCC4)CC3)c12` [Compound 1004, 1-(4-(cycloheptanecarbonyl)piperazin-1-yl)-2-(4-methoxy-7-(1H-1,2,3-triazol-1-yl)-1H-pyrrolo[2,3-c]pyridin-3-yl)ethane-1,2-dione], the EC50 was 0.14 nM. Besides, the EC50 under setting [1] is less than 500 nM.
With `CN1CCCCC1C(=O)N1CCN(C(=O)C(=O)c2c[nH]c3c(-n4ccnn4)ncc(F)c23)CC1` (centres unmarked) [Compound 2029], the 50% effective concentration (EC50) under setting [1] was greater than 500 nM.
As for `CC(C)(C)OC(=O)N[C@@H](C(=O)N1CCN(C(=O)C(=O)c2c[nH]c3c(-n4ccnn4)ncc(F)c23)CC1)c1ccccc1` [Compound 2026], under setting [1], the EC50 is greater than 500 nM.
The same measure, in the same setting: under `CN(C)CC(=O)N1CCN(C(=O)C(=O)c2c[nH]c3c(-n4ccnn4)ncc(F)c23)CC1` [Compound 2045] stands greater than 500 nM; under `CC(C)(C)OC(=O)N1CCCC(C(=O)N2CCN(C(=O)C(=O)c3c[nH]c4c(-n5ccnn5)ncc(F)c34)CC2)C1` (centres unmarked) [Compound 2034], greater than 500 nM; under `CC(C)=C[C@@H]1[C@@H](C(=O)N2CCN(C(=O)C(=O)c3c[nH]c4c(-n5ccnn5)ncc(F)c34)CC2)C1(C)C` [Compound 2011], greater than 500 nM.
`O=C(C(=O)N1CCN(C(=O)[C@H](O)c2ccccc2)CC1)c1c[nH]c2c(-n3ccnn3)ncc(F)c12` [Compound 2019] came in with an EC50 of 344 nM. The concentration giving a half-maximal response (EC50) under setting [1] was less than 500 nM.
`O=C(C(=O)N1CCN(C(=O)C2CCCO2)CC1)c1c[nH]c2c(-n3ccnn3)ncc(F)c12` (centres unmarked) [Compound 2002]: under setting [1], the EC50 is less than 500 nM.
Regarding `CC(C)(C)C1CCC(C(=O)N2CCN(C(=O)C(=O)c3c[nH]c4c(-n5ccnn5)ncc(F)c34)CC2)CC1` (centres unmarked) [Compound 2009], under setting [1], the EC50 is greater than 500 nM.
On the same count and under the same terms, to `O=C(C(=O)N1CCN(C(=O)C2CCC(F)(F)CC2)CC1)c1c[nH]c2c(-n3ccnn3)ncc(F)c12` [Compound 2022] belongs less than 500 nM.
`CC(C)C(=O)N1CCN(C(=O)C(=O)c2c[nH]c3c(-n4ccnn4)ncc(F)c23)CC1` [Compound 2039]: the concentration giving a half-maximal response (EC50) under setting [1] is less than 500 nM.
On to `O=C(C(=O)N1CCN(C(=O)C2CC2)CC1)c1c[nH]c2c(-n3ccnn3)ncc(F)c12` [Compound 2038], for which the 50% effective concentration (EC50) under setting [1] was less than 500 nM.
For `O=C(C(=O)N1CCN(C(=O)[C@@H](O)c2ccccc2)CC1)c1c[nH]c2c(-n3ccnn3)ncc(F)c12` [Compound 2023], under setting [1], the 50% effective concentration (EC50) was less than 500 nM.
Regarding `O=C(C(=O)N1CCN(C(=O)C2CCCOC2)CC1)c1c[nH]c2c(-n3ccnn3)ncc(F)c12` (centres unmarked) [Compound 2024], under setting [1], the 50% effective concentration (EC50) was less than 500 nM.
In turn, `O=C(C(=O)N1CCN(C(=O)C2CCCCC2)CC1)c1c[nH]c2c(-n3ccnn3)ncc(F)c12` [Compound 2017] had an EC50 of 0.11 nM. In addition, under setting [1], the EC50 was less than 500 nM.
For `CC1(C)CC(C(=O)N2CCN(C(=O)C(=O)c3c[nH]c4c(-n5ccnn5)ncc(F)c34)CC2)CC(C)(C)N1` [Compound 2025], the 50% effective concentration (EC50) under setting [1] is greater than 500 nM.
In turn, `O=C(C(=O)N1CCN(C(=O)C2CC3CCC2C(O)C3)CC1)c1c[nH]c2c(-n3ccnn3)ncc(F)c12` (centres unmarked) [Compound 2008] came in with a concentration giving a half-maximal response (EC50) of 5.1 nM. For the same molecule, the half-maximal effective concentration (EC50) under setting [1] was less than 500 nM.
The corresponding values for `O=C(C(=O)N1CCN(C(=O)C23CC4CC(CC2C4)C3)CC1)c1c[nH]c2c(-n3ccnn3)ncc(F)c12` [Compound 2004] are 1.15 nM and less than 500 nM.
Turning to `CC(C)(C)OC(=O)N1CCC(C(=O)N2CCN(C(=O)C(=O)c3c[nH]c4c(-n5ccnn5)ncc(F)c34)CC2)C1` (centres unmarked) [Compound 2033], the concentration for a half-maximal effect (EC50) under setting [1] was greater than 500 nM.
